Values of other authors in patent US20180255779A1, “TRIAZOLE FORMULATIONS” (Vive Crop Protection Inc., priority 2013, published 2018).
Read-outs that look alike come from different tables or passages of the source.

Key:
[1] = not given; remark: listed apart in the source
[2] = octanol-water

SMILES | Photolytic Stability, DT50 (pH 7) | Kow, log P [2] | also measured
Fc1ccc([C@]2(Cn3cncn3)O[C@H]2c2ccccc2Cl)cc1 (racemic) [Epoxiconazole, (2RS,3SR)-1-[3-(2-chlorophenyl)-2,3-epoxy-2-(4-fluorophenyl)propyl]-1H-1,2,4-triazole] | DT50: 52 d (aqueous photolysis at pH 7) |  | 
CCCCC(C#N)(Cn1cncn1)c1ccc(Cl)cc1 (racemic) [Myclobutanil, (RS)-2-(4-chlorophenyl)-2-(1H-1,2,4-triazol-1-ylmethyl)hexanenitrile] |  | log P: 2.89 | Solubility ([1]; heptane at 20° C.): 1020 mg/L (heptane at 20° C.); Solubility ([1]; methanol and acetone, both at 20° C.): 250000 mg/L (methanol and acetone, both at 20° C.); Solubility ([1]; water at 20° C.): 132 mg/L (water at 20° C.); Photolytic Stability, DT50 (aqueous photolysis at pH 7): DT50: 15 d (aqueous photolysis at pH 7)
FC(F)C(F)(F)OCC(Cn1cncn1)c1ccc(Cl)cc1Cl (racemic) [Tetraconazole, (RS)-2-(2,4-dichlorophenyl)-3-(1H-1,2,4-triazol-1-yl)propyl 1,1,2,2-tetrafluoroethyl ether] | 217 days |  | 
CC1(C)CC/C(=C\c2ccc(Cl)cc2)C1(O)Cn1cncn1 (racemic) [Triticonazole, (RS)-(E)-5-(4-chlorobenzylidene)-2,2-dimethyl-1-(1H-1,2,4-triazol-1-ylmethyl)cyclopentanol] | DT50: 3.1 d (aqueous photolysis at pH 7) |  | 
CC(C1CC1)C(O)(Cn1cncn1)c1ccc(Cl)cc1 (stereo not drawn) [Cyproconazole, (2RS,3RS;2RS,3SR)-2-(4-chlorophenyl)-3-cyclopropyl-1-(1H-1,2,4-triazol-1-yl)butan-2-ol] | DT 50: 40 d (aqueous photolysis at pH 7) |  | 
CC1COC(Cn2cncn2)(c2ccc(Oc3ccc(Cl)cc3)cc2Cl)O1 (stereo not drawn) [Difenoconazole, 3-chloro-4-[(2RS,4RS;2RS,4SR)-4-methyl-2-(1H-1,2,4-triazol-1-ylmethyl)-1,3-dioxolan-2-yl]phenyl 4-chlorophenyl ether] |  | log P: 4.36 | 
CCCC1COC(Cn2cncn2)(c2ccc(Cl)cc2Cl)O1 (stereo not drawn) [Propiconazole, (2RS,4RS;2RS,4SR)-1-[2-(2,4-dichlorophenyl)-4-propyl-1,3-dioxolan-2-ylmethyl]-1H-1,2,4-triazole] |  | log P: 3.72 | Solubility ([1]; heptane at 20° C.): 1585 mg/L (heptane at 20° C.); Solubility ([1]; water at 20° C.): 150 mg/L (water at 20° C.)
